# Results as given in patent EP4707284A1, “HETEROCYCLIC COMPOUND AND USE THEREOF” (Otsuka Pharmaceutical Co., Ltd., priority 2023, dated 2024).
# Format: physicochemical
# Conditions: Tris-hydrochloric acid buffer (pH 7.5) 50 mmol/L, magnesium chloride 5 mmol/L, evaluation compound 1 µmol/L, 37°C, 60 minutes, average of duplicate
# Procedure: The conversion from the evaluation compounds to brexpiprazole in a buffer (i.e., the stability of the evaluation compounds) was evaluated.
# The Example 1 compound was dissolved in acetonitrile/water (1:1, v/v) to 10 mmol/L and further diluted with acetonitrile/water (1:1, v/v) to 100 µmol/L for use.
# The other Example compounds and the Reference Example 5 compound to Reference Example 7 compound were each dissolved in DMSO to 10 mmol/L and further diluted with acetonitrile to 100 µmol/L for use, except for the following compounds.
# The compounds of Examples 52, 95, 96, 117, and 130 (EX 52, EX 95, EX 96, EX 117, and EX 130) were dissolved in acetonitrile/water (8:2, v/v) to 10 mmol/L and further diluted with acetonitrile to 100 µmol/L for use.
# The compound of Example 97 (EX 97) was dissolved in acetonitrile/water (8:2, v/v) to 10 mmol/L and further diluted with acetonitrile/water (8:2, v/v) to 100 µmol/L for use.
# The compounds of Examples 15 and 116 (EX 15 and EX 116) were dissolved in DMSO to 1 mmol/L and further diluted with acetonitrile to 100 µmol/L for use.
# These evaluation compound solutions were prepared at the time of use.
# The reaction was conducted by preparing each reaction solution such that the final concentration of each component was as follows. The test was conducted in duplicate.
# For the compounds of Examples 1 to 8, 10 to 19, 26 to 27, 37, 50, 87 to 89, 91, 116, 121, 123, 150, and 151 (EX 1 to EX 8, EX 10 to EX 19, EX 26 to EX 27, EX 37, EX 50, EX 87 to EX 89, EX 91, EX 116, EX 121, EX 123, EX 150, and EX 151), and the compounds of Reference Examples 5 to 7 (REX 5 to REX 7), the reaction solution without the evaluation compound (198 µl) was pre-incubated at 37°C for 3 minutes, and then each of the evaluation compound solutions (2 µl) was added and stirred; thereafter, the reaction was started at 37°C. At 0 minutes or 60 minutes after the start of the reaction, the reaction was stopped by adding and stirring a reaction stop solution (1000 µl) composed of acetonitrile/isopropanol (4:1, v/v) containing internal standard substances. However, the 0-minute reaction sample (198 µl) was prepared by adding the evaluation compound (2 µl) after adding the reaction stop solution (1000 µl). The samples after stopping the reaction were used as the measurement samples. Calibration curve samples with the same composition were prepared (final concentrations of the evaluation compounds and brexpiprazole: 0.01, 0.1, and 1 µmol/L, with the proviso that for the evaluation compounds only, the 0-minute reaction samples were also used as calibration curve samples for 1 µmol/L).
# For the compounds of Examples 24 to 25, 28 to 29, 32 to 36, 40 to 49, 51 to 60, 62 to 64, 66 to 77, 80 to 86, 90, 92 to 111, 113, 115, 117 to 120, 122, 124 to 130, 132 to 147, and 152 to 160 (EX 24 to EX 25, EX 28 to EX 29, EX 32 to EX 36, EX 40 to EX 49, EX 51 to EX 60, EX 62 to EX 64, EX 66 to EX 77, EX 80 to EX 86, EX 90, EX 92 to EX 111, EX 113, EX 115, EX 117 to EX 120, EX 122, EX 124 to EX 130, EX 132 to EX 147, and EX 152 to EX 160), the reaction solution without the evaluation compound (148.5 µl) was pre-incubated at 37°C for 3 minutes, and then each of the evaluation compound solutions (1.5 µl) was added and stirred; thereafter, the reaction was started at 37°C. At 0 minutes or 60 minutes after the start of the reaction, the reaction was stopped by adding and stirring a reaction stop solution (600 µl) composed of acetonitrile/isopropanol (4:1, v/v) containing internal standard substances. However, the 0-minute reaction sample (148.5 µl) was prepared by adding the evaluation compound (1.5 µl) after adding the reaction stop solution (600 µl). The samples after stopping the reaction were used as the measurement samples. […]
Concentration of brexpiprazole formed,Concentration of evaluation compound decreased,SMILES
0 nM,120 nM,O=c1ccc2ccc(OCCCC[N+]3(COP(=O)([O-])OCC4CC4)CCN(c4cccc5sccc45)CC3)cc2[nH]1 [EX 91]
0 nM,110 nM,O=c1ccc2ccc(OCCCC[N+]3(COP(=O)([O-])OCCCCCO)CCN(c4cccc5sccc45)CC3)cc2[nH]1 [EX 92]
0 nM,-10 nM,O=c1ccc2ccc(OCCCC[N+]3(COP(=O)([O-])OCCOCCO)CCN(c4cccc5sccc45)CC3)cc2[nH]1 [EX 93]
0 nM,-70 nM,CCOCCOP(=O)([O-])OC[N+]1(CCCCOc2ccc3ccc(=O)[nH]c3c2)CCN(c2cccc3sccc23)CC1 [EX 94]
0 nM,-10 nM,CCCOCCOP(=O)([O-])OC[N+]1(CCCCOc2ccc3ccc(=O)[nH]c3c2)CCN(c2cccc3sccc23)CC1 [EX 95]
0 nM,30 nM,CCCCOCCOP(=O)([O-])OC[N+]1(CCCCOc2ccc3ccc(=O)[nH]c3c2)CCN(c2cccc3sccc23)CC1 [EX 96]
0 nM,90 nM,CCOCCCOP(=O)([O-])OC[N+]1(CCCCOc2ccc3ccc(=O)[nH]c3c2)CCN(c2cccc3sccc23)CC1 [EX 97]
0 nM,-20 nM,CCOCCOCCOP(=O)([O-])OC[N+]1(CCCCOc2ccc3ccc(=O)[nH]c3c2)CCN(c2cccc3sccc23)CC1 [EX 98]
0 nM,50 nM,CC1(C)O[C@H]2[C@@H](O1)[C@@H](COP(=O)([O-])OC[N+]1(CCCCOc3ccc4ccc(=O)[nH]c4c3)CCN(c3cccc4sccc34)CC1)O[C@@H]1OC(C)(C)O[C@@H]12 [EX 100]
0 nM,80 nM,CC(=O)OCCCCCCOP(=O)([O-])OC[N+]1(CCCCOc2ccc3ccc(=O)[nH]c3c2)CCN(c2cccc3sccc23)CC1 [EX 101]
0 nM,70 nM,CC(C)(C)C(=O)OCCCCCCOP(=O)([O-])OC[N+]1(CCCCOc2ccc3ccc(=O)[nH]c3c2)CCN(c2cccc3sccc23)CC1 [EX 102]
0 nM,-10 nM,CCOC(=O)[C@@H](C)OP(=O)([O-])OC[N+]1(CCCCOc2ccc3ccc(=O)[nH]c3c2)CCN(c2cccc3sccc23)CC1 [EX 103]
0 nM,200 nM,CCOC(=O)[C@H](C)OP(=O)([O-])OC[N+]1(CCCCOc2ccc3ccc(=O)[nH]c3c2)CCN(c2cccc3sccc23)CC1 [EX 104]
0 nM,50 nM,CC(C)OC(=O)[C@@H](C)OP(=O)([O-])OC[N+]1(CCCCOc2ccc3ccc(=O)[nH]c3c2)CCN(c2cccc3sccc23)CC1 [EX 105]
0 nM,70 nM,C[C@@H](OP(=O)([O-])OC[N+]1(CCCCOc2ccc3ccc(=O)[nH]c3c2)CCN(c2cccc3sccc23)CC1)C(=O)OC(C)(C)C [EX 106]
0 nM,70 nM,CC(C)COC(=O)[C@@H](C)OP(=O)([O-])OC[N+]1(CCCCOc2ccc3ccc(=O)[nH]c3c2)CCN(c2cccc3sccc23)CC1 [EX 107]

Concentration of brexpiprazole formed,Concentration of evaluation compound decreased,SMILES
0 nM,80 nM,CCC(CC)COC(=O)[C@@H](C)OP(=O)([O-])OC[N+]1(CCCCOc2ccc3ccc(=O)[nH]c3c2)CCN(c2cccc3sccc23)CC1 [EX 108]
0 nM,-20 nM,CCOCCOC(=O)[C@@H](C)OP(=O)([O-])OC[N+]1(CCCCOc2ccc3ccc(=O)[nH]c3c2)CCN(c2cccc3sccc23)CC1 [EX 109]
0 nM,70 nM,CCOC(=O)C(CC)OP(=O)([O-])OC[N+]1(CCCCOc2ccc3ccc(=O)[nH]c3c2)CCN(c2cccc3sccc23)CC1 (centres unmarked) [EX 110]
0 nM,20 nM,CCOC(=O)C[C@@H](OP(=O)([O-])OC[N+]1(CCCCOc2ccc3ccc(=O)[nH]c3c2)CCN(c2cccc3sccc23)CC1)C(=O)OCC [EX 111]
0 nM,50 nM,O=c1ccc2ccc(OCCCC[N+]3(COP(=O)([O-])OCC(F)F)CCN(c4cccc5sccc45)CC3)cc2[nH]1 [EX 115]
0 nM,90 nM,C[C@@H]1CN(CCOP(=O)([O-])OC[N+]2(CCCCOc3ccc4ccc(=O)[nH]c4c3)CCN(c3cccc4sccc34)CC2)C[C@H](C)O1 [EX 116]
0 nM,50 nM,CN1CCN(CCOP(=O)([O-])OC[N+]2(CCCCOc3ccc4ccc(=O)[nH]c4c3)CCN(c3cccc4sccc34)CC2)CC1 [EX 117]
0 nM,60 nM,O=c1ccc2ccc(OCCCC[N+]3(COP(=O)([O-])OCCN4CCCCC4)CCN(c4cccc5sccc45)CC3)cc2[nH]1 [EX 118]
0 nM,140 nM,O=c1ccc2ccc(OCCCC[N+]3(COP(=O)([O-])OCCN4CCC(F)(F)CC4)CCN(c4cccc5sccc45)CC3)cc2[nH]1 [EX 119]
0 nM,50 nM,CCC(=O)OCOP(=O)([O-])OC[N+]1(CCCCOc2ccc3ccc(=O)[nH]c3c2)CCN(c2cccc3sccc23)CC1 [EX 120]
0 nM,90 nM,CCCC(=O)OCOP(=O)([O-])OC[N+]1(CCCCOc2ccc3ccc(=O)[nH]c3c2)CCN(c2cccc3sccc23)CC1 [EX 121]
0 nM,50 nM,CCC(C)(C)C(=O)OCOP(=O)([O-])OC[N+]1(CCCCOc2ccc3ccc(=O)[nH]c3c2)CCN(c2cccc3sccc23)CC1 [EX 122]
0 nM,-110 nM,CCCC(C)(C)C(=O)OCOP(=O)([O-])OC[N+]1(CCCCOc2ccc3ccc(=O)[nH]c3c2)CCN(c2cccc3sccc23)CC1 [EX 123]
0 nM,100 nM,O=C(OCOP(=O)([O-])OC[N+]1(CCCCOc2ccc3ccc(=O)[nH]c3c2)CCN(c2cccc3sccc23)CC1)C12CC3CC(CC(C3)C1)C2 [EX 124]
0 nM,130 nM,O=C(CCO)OCOP(=O)([O-])OC[N+]1(CCCCOc2ccc3ccc(=O)[nH]c3c2)CCN(c2cccc3sccc23)CC1 [EX 125]
